Legend:
Conditions in all cases: exposure time: 72 h
E57 [1] = patient-derived glioblastoma stem cells of mesenchymal subtype; test: phenotypic distance (Euclidean, principal components) from DMSO controls (arbitrary units); higher = stronger morphological change
E28 [2] = patient-derived glioblastoma stem cells of classical subtype; test: as above
E34 [3] = patient-derived glioblastoma stem cells of proneural subtype; test: as above
E13 [4] = patient-derived glioblastoma stem cells of classical subtype; test: as above
FT3469 [5] = normal neural stem cell line; test: as above
E21 [6] = patient-derived glioblastoma stem cells of mesenchymal subtype; test: as above
E31 [7] = patient-derived glioblastoma stem cells of proneural subtype; test: as above
E57 [8] = test: surviving fraction (nuclei count normalised to DMSO); higher = more cells surviving (less toxic)
E28 [9] = test: as above
E34 [10] = test: as above
E13 [11] = test: as above
FT3469 [12] = test: as above
E21 [13] = test: as above
E31 [14] = test: as above
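Wherever phenotypic distance (Euclidean, principal components) from DMSO controls is given: cell Painting imaging in 384-well plates, CellProfiler features reduced to at least 20 principal components, Euclidean distance versus same-plate DMSO vehicle wells (0.1% v/v), median over six images per well.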
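Wherever surviving fraction (nuclei count normalised to DMSO) is given: nuclei counted by high-content imaging of Hoechst-stained cells in laminin-coated 384-well plates, relative to 0.1% DMSO vehicle wells, with staurosporine as cell-death control.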

NCCNc1ccc(NCCN)c2c1C(=O)c1ccncc1C2=O [Pixantrone dimaleate]
Conditions | phenotypic distance | surviving fraction
E13 [4], 4.1 nM | 2.19 | –
E13 [4], 12.3 nM | 0.616 | –
E13 [4], 37 nM | 0.772 | –
E13 [4], 111.1 nM | 1.76 | –
E13 [4], 333.3 nM | 4.4 | –
E13 [4], 1000 nM | 5.24 | –
E13 [4], 3000 nM | 4.99 | –
E13 [11], 4.1 nM | – | 0.883
E13 [11], 12.3 nM | – | 0.94
E13 [11], 37 nM | – | 0.916
E13 [11], 111.1 nM | – | 0.798
E13 [11], 333.3 nM | – | 0.48
E13 [11], 1000 nM | – | 0.399
E13 [11], 3000 nM | – | 0.383
E21 [6], 4.1 nM | 0.691 | –
E21 [6], 12.3 nM | 0.873 | –
E21 [6], 37 nM | 0.996 | –
E21 [6], 111.1 nM | 2.7 | –
E21 [6], 333.3 nM | 4.95 | –
E21 [6], 1000 nM | 6 | –
E21 [6], 3000 nM | 5.53 | –
E21 [13], 4.1 nM | – | 0.991
E21 [13], 12.3 nM | – | 0.812
E21 [13], 37 nM | – | 0.904
E21 [13], 111.1 nM | – | 0.733
E21 [13], 333.3 nM | – | 0.619
E21 [13], 1000 nM | – | 0.509
E21 [13], 3000 nM | – | 0.364
E28 [2], 4.1 nM | 2.06 | –
E28 [2], 12.3 nM | 2.09 | –
E28 [2], 37 nM | 2.43 | –
E28 [2], 111.1 nM | 3.32 | –
E28 [2], 333.3 nM | 3.6 | –
E28 [2], 1000 nM | 3.19 | –
E28 [2], 3000 nM | 4.63 | –
E28 [9], 4.1 nM | – | 0.677
E28 [9], 12.3 nM | – | 0.604
E28 [9], 37 nM | – | 0.524
E28 [9], 111.1 nM | – | 0.418
E28 [9], 333.3 nM | – | 0.349
E28 [9], 1000 nM | – | 0.333
E28 [9], 3000 nM | – | 0.216
E31 [7], 4.1 nM | 2.15 | –
E31 [7], 12.3 nM | 1.85 | –
E31 [7], 37 nM | 2.43 | –
E31 [7], 111.1 nM | 3.58 | –
E31 [7], 333.3 nM | 2.86 | –
E31 [7], 1000 nM | 3.07 | –
E31 [7], 3000 nM | 4.34 | –
E31 [14], 4.1 nM | – | 0.539
E31 [14], 12.3 nM | – | 0.566
E31 [14], 37 nM | – | 0.397
E31 [14], 111.1 nM | – | 0.327
E31 [14], 333.3 nM | – | 0.312
E31 [14], 1000 nM | – | 0.275
E31 [14], 3000 nM | – | 0.142
E34 [3], 4.1 nM | 0.885 | –
E34 [3], 12.3 nM | 0.947 | –
E34 [3], 37 nM | 1.52 | –
E34 [3], 111.1 nM | 3.49 | –
E34 [3], 333.3 nM | 3.78 | –
E34 [3], 1000 nM | 3.22 | –
E34 [3], 3000 nM | 1.77 | –
E34 [10], 4.1 nM | – | 0.839
E34 [10], 12.3 nM | – | 0.771
E34 [10], 37 nM | – | 0.637
E34 [10], 111.1 nM | – | 0.702
E34 [10], 333.3 nM | – | 0.686
E34 [10], 1000 nM | – | 0.588
E34 [10], 3000 nM | – | 0.492
E57 [1], 4.1 nM | 0.987 | –
E57 [1], 12.3 nM | 0.95 | –
E57 [1], 37 nM | 1.45 | –
E57 [1], 111.1 nM | 3.37 | –
E57 [1], 333.3 nM | 6.17 | –
E57 [1], 1000 nM | 7.83 | –
E57 [1], 3000 nM | 8.45 | –
E57 [8], 4.1 nM | – | 0.955
E57 [8], 12.3 nM | – | 0.897
E57 [8], 37 nM | – | 0.79
E57 [8], 111.1 nM | – | 0.555
E57 [8], 333.3 nM | – | 0.346
E57 [8], 1000 nM | – | 0.288
E57 [8], 3000 nM | – | 0.24
FT3469 [5], 4.1 nM | 1.02 | –
FT3469 [5], 12.3 nM | 1.28 | –
FT3469 [5], 37 nM | 1.5 | –
FT3469 [5], 111.1 nM | 2.03 | –
FT3469 [5], 333.3 nM | 1.76 | –
FT3469 [5], 1000 nM | 1.86 | –
FT3469 [5], 3000 nM | 2.37 | –
FT3469 [12], 4.1 nM | – | 0.869
FT3469 [12], 12.3 nM | – | 0.795
FT3469 [12], 37 nM | – | 0.763
FT3469 [12], 111.1 nM | – | 0.623
FT3469 [12], 333.3 nM | – | 0.666
FT3469 [12], 1000 nM | – | 0.631
FT3469 [12], 3000 nM | – | 0.565

COc1cc([C@@H]2c3cc4c(cc3[C@H](O)[C@H]3COC(=O)[C@H]23)OCO4)cc(OC)c1OC [Podophyllotoxin]
Conditions | phenotypic distance | surviving fraction
E13 [4], 4.1 nM | 6.81 | –
E13 [4], 12.3 nM | 7.76 | –
E13 [4], 37 nM | 6.3 | –
E13 [4], 111.1 nM | 8.14 | –
E13 [4], 333.3 nM | 7.56 | –
E13 [4], 1000 nM | 9.37 | –
E13 [4], 3000 nM | 9.25 | –
E13 [11], 4.1 nM | – | 0.153
E13 [11], 12.3 nM | – | 0.182
E13 [11], 37 nM | – | 0.139
E13 [11], 111.1 nM | – | 0.182
E13 [11], 333.3 nM | – | 0.123
E13 [11], 1000 nM | – | 0.197
E13 [11], 3000 nM | – | 0.112
E21 [6], 4.1 nM | 8.85 | –
E21 [6], 12.3 nM | 8.76 | –
E21 [6], 37 nM | 8.54 | –
E21 [6], 111.1 nM | 8.65 | –
E21 [6], 333.3 nM | 8.16 | –
E21 [6], 1000 nM | 8.89 | –
E21 [6], 3000 nM | 8.66 | –
E21 [13], 4.1 nM | – | 0.115
E21 [13], 12.3 nM | – | 0.113
E21 [13], 37 nM | – | 0.0947
E21 [13], 111.1 nM | – | 0.0585
E21 [13], 333.3 nM | – | 0.0628
E21 [13], 1000 nM | – | 0.0607
E21 [13], 3000 nM | – | 0.0362
E28 [2], 4.1 nM | 3.02 | –
E28 [2], 12.3 nM | 3.22 | –
E28 [2], 37 nM | 4.05 | –
E28 [2], 111.1 nM | 5.71 | –
E28 [2], 333.3 nM | 5.89 | –
E28 [2], 1000 nM | 6.42 | –
E28 [2], 3000 nM | 6.86 | –
E28 [9], 4.1 nM | – | 0.354
E28 [9], 12.3 nM | – | 0.369
E28 [9], 37 nM | – | 0.324
E28 [9], 111.1 nM | – | 0.265
E28 [9], 333.3 nM | – | 0.22
E28 [9], 1000 nM | – | 0.209
E28 [9], 3000 nM | – | 0.198
E31 [7], 4.1 nM | 5.03 | –
E31 [7], 12.3 nM | 5.75 | –
E31 [7], 37 nM | 7.75 | –
E31 [7], 111.1 nM | 13.3 | –
E31 [7], 333.3 nM | 11.2 | –
E31 [7], 1000 nM | 14.3 | –
E31 [7], 3000 nM | 13.5 | –
E31 [14], 4.1 nM | – | 0.0505
E31 [14], 12.3 nM | – | 0.0728
E31 [14], 37 nM | – | 0.0565
E31 [14], 111.1 nM | – | 0.0446
E31 [14], 333.3 nM | – | 0.0282
E31 [14], 1000 nM | – | 0.0371
E31 [14], 3000 nM | – | 0.0297
E34 [3], 4.1 nM | 4.47 | –
E34 [3], 12.3 nM | 4.98 | –
E34 [3], 37 nM | 6.57 | –
E34 [3], 111.1 nM | 8.02 | –
E34 [3], 333.3 nM | 7.55 | –
E34 [3], 1000 nM | 9.53 | –
E34 [3], 3000 nM | 9.18 | –
E34 [10], 4.1 nM | – | 0.471
E34 [10], 12.3 nM | – | 0.378
E34 [10], 37 nM | – | 0.31
E34 [10], 111.1 nM | – | 0.339
E34 [10], 333.3 nM | – | 0.32
E34 [10], 1000 nM | – | 0.329
E34 [10], 3000 nM | – | 0.249
E57 [1], 4.1 nM | 6.96 | –
E57 [1], 12.3 nM | 6.65 | –
E57 [1], 37 nM | 7.38 | –
E57 [1], 111.1 nM | 5.64 | –
E57 [1], 333.3 nM | 6.77 | –
E57 [1], 1000 nM | 7.07 | –
E57 [1], 3000 nM | 6.6 | –
E57 [8], 4.1 nM | – | 0.0665
E57 [8], 12.3 nM | – | 0.0974
E57 [8], 37 nM | – | 0.0586
E57 [8], 111.1 nM | – | 0.0625
E57 [8], 333.3 nM | – | 0.089
E57 [8], 1000 nM | – | 0.0755
E57 [8], 3000 nM | – | 0.0653
FT3469 [5], 4.1 nM | 4.23 | –
FT3469 [5], 12.3 nM | 5.67 | –
FT3469 [5], 37 nM | 4.76 | –
FT3469 [5], 111.1 nM | 6.26 | –
FT3469 [5], 333.3 nM | 5.78 | –
FT3469 [5], 1000 nM | 5.4 | –
FT3469 [5], 3000 nM | 6.63 | –
FT3469 [12], 4.1 nM | – | 0.517
FT3469 [12], 12.3 nM | – | 0.541
FT3469 [12], 37 nM | – | 0.375
FT3469 [12], 111.1 nM | – | 0.377
FT3469 [12], 333.3 nM | – | 0.433
FT3469 [12], 1000 nM | – | 0.416
FT3469 [12], 3000 nM | – | 0.379
